Results as given in US10858365B2, “Triazolo-pyrimidine compounds and uses thereof” (Dizal (Jiangsu) Pharmaceutical Co., Ltd., priority 2018, dated 2020).

Experiments:
[1] = target: T1, hA2a (Homo sapiens (Human), UniProt P29274); experiment: Radioligand binding to hA2a membrane ([3H]-CGS21680); settings: [3H]-CGS21680, 90 min at 25° C., read-out: Binding Affinity (IC50 nM) hA2a
Protocol: (§1) Binding affinity and specificities of the compounds against different subtype of human adenosine receptors (hA1, hA2A, hA2B and hA3) were characterized with cell membrane chromatography binding analysis.
(§2) The compounds at different concentrations were incubate with hA2a membrane (from PerkinElmer) and [^3H]-CGS21680 for 90 min at 25° C., meanwhile 100 μL 0.5% PEI solution was added into […]-96 GF/B filter plate for 60 min at 4° C., then […]-96 GF/B filter plate was washed twice with 50 ml wash buffer, the membrane mix was transferred into […]-96 GF/B filter plate, and the filter plate was washed 4 times before incubated at 55° C. for 10 min. At last, […] ULTIMA GOLD was added into each well, and CPM was read by TopCount.
(§3) The empty boxes in the tables below indicate data not available.

[2] = target: T2, hA3 (Homo sapiens (Human), UniProt P0DMS8); experiment: Radioligand binding to hA3 membrane (AB-MECA radioligand); settings: 60 min at 27° C., read-out: Binding Affinity (IC50 nM) hA3
Protocol: as §1
(§4) The compounds at different concentrations were incubate with hA3 membrane (from PerkinElmer) and [^1211]-AB-MECA for 60 min at 27° C., the binding reactions were stopped by rapid filtration through 0.50% BSA coated […]-96 GF/C plates using cell harvester. The filter plates were then washed three times with ice cold wash buffer, and dried at 37° C. for 120 min. At last, 50 µL of scintillation cocktail was added into each well, and CPM was read by TopCount.
as §3

[3] = target: mA2a (Mus musculus (Mouse), UniProt Q60613); experiment: cAMP inhibition assay in mA2a/CHO cells; format: cell-based; settings: adenosine stimulation, read-out: cAMP & FLIPR IC50 (nM) mA2a
Protocol: (§5) hA2a/CHO, hA2b/CHO and mA2a/CHO (Genscript) were plated at 5×10^3 cells/well into 384-well polystyrene plates at the day of experiment. Compounds were pre-incubated with cells for 30 min at 37° C., 5% CO2. Then […] adenosine was added to the cells and incubated for 30 min at 37° C., 5% CO2. Detection reagent (CISBIO) was added and the plates were incubated for 60 min at room temperature. The signal was captured by Envision.

[4] = target: T1, hA2a; experiment: cAMP inhibition assay in hA2a/CHO cells; format: cell-based; settings: adenosine stimulation, read-out: cAMP & FLIPR IC50 (nM) hA2a
How it was run: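 CHO cells expressing human A2a, human A2b or mouse A2a, 5×10^3 cells/well, pre-incubated with compound 30 min at 37 °C, then stimulated with […] adenosine 30 min at 37 °C. cAMP read after 60 min room-temperature incubation with detection reagent.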

[5] = target: T3, hA1 (Homo sapiens (Human), UniProt P30542); experiment: FLIPR inhibition assay in hADORA1/CHO (hA1 expressing) cells; format: cell-based; settings: hADORA1/CHO cells, FLIPR calcium, adenosine stimulation; read-out: cAMP & FLIPR IC50 (nM) hA1
How it was run: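 CHO cells expressing human A1 were plated at 1×10^4 cells/well the day before, then loaded with FLIPR Calcium 5 dye for 60 min at 37 °C, 5% CO2. Compounds were added at several concentrations for 400 s before stimulation with […] adenosine. The calcium signal was recorded by FLIPR.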

[6] = target: T2, hA3; experiment: cAMP & FLIPR inhibition, hA3 over-expressing cell line; format: cell-based
Text: FLIPR™ and cAMP inhibition activities of exemplary compounds in different adenosine receptor over-expressing cell lines are shown in Table 4 below.

[7] = target: T4, hA2b (Homo sapiens (Human), UniProt P29275); experiment: Radioligand binding to hA2b membrane ([3H]-DPCPX); settings: 60 min at 27° C., read-out: Binding Affinity (IC50 nM) hA2b
Protocol: as §1
as §4, with “hA2b” for “hA3”, “[^3H]-DPCPX” for “[^1211]-AB-MECA”, “C., and” for “C.,”, “0.5%” for “0.50%”
as §3

[8] = target: T4, hA2b; experiment: cAMP inhibition assay in hA2b/CHO cells; format: cell-based; settings: adenosine stimulation, read-out: cAMP & FLIPR IC50 (nM) hA2b
Protocol: as §5

[9] = target: T3, hA1; experiment: Radioligand binding to hA1 membrane ([3H]-DPCPX); settings: 50 min at 25° C., read-out: Binding Affinity (IC50 nM) hA1
Protocol: as §1
as §2, with “hA1” for “hA2a”, “[^3H]-8-Cyclopentyl-1,3-dipropylxanthine (DPCPX)” for “[^3H]-CGS21680”, “50” for “90”
as §3

Sequence of mA2a (Q60613 whole entry): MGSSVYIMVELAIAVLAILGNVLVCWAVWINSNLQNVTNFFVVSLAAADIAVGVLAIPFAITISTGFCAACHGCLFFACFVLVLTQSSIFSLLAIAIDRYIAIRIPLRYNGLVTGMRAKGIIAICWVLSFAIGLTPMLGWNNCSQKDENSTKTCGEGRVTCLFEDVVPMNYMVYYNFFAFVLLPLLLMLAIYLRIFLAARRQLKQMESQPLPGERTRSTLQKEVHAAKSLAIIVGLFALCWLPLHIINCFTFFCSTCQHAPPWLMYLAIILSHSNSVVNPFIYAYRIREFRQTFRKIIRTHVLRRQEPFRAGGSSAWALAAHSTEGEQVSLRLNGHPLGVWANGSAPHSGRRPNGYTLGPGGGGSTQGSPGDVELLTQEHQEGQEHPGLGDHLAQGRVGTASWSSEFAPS
T2 sequence (P0DMS8 whole entry): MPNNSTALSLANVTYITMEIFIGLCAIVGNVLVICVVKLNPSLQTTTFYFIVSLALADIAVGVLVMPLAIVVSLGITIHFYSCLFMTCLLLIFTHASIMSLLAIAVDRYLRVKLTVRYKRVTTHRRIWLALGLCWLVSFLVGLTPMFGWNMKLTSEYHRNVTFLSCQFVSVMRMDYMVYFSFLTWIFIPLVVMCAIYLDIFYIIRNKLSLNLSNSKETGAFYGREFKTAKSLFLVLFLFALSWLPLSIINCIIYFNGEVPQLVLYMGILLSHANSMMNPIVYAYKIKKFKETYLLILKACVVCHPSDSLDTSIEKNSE
T3 sequence (P30542 whole entry): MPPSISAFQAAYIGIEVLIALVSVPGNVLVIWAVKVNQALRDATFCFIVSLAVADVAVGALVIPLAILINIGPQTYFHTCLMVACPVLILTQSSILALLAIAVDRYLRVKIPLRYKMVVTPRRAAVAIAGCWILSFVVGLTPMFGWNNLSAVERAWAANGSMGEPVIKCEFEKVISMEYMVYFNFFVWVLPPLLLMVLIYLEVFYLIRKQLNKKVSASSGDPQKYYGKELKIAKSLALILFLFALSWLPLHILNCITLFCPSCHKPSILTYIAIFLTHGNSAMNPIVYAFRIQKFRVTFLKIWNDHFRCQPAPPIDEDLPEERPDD
T1 sequence (P29274 whole entry): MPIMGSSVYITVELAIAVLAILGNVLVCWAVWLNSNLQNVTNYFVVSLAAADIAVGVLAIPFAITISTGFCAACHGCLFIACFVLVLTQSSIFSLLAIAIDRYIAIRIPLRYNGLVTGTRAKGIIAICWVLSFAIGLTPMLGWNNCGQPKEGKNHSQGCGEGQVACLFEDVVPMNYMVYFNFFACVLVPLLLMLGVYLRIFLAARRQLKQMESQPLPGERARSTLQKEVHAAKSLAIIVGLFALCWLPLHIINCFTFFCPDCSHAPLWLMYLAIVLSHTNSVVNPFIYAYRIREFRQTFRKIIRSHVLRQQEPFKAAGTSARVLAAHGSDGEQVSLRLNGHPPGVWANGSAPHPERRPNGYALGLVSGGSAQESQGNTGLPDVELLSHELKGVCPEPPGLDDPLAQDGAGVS
T4 sequence (P29275 whole entry): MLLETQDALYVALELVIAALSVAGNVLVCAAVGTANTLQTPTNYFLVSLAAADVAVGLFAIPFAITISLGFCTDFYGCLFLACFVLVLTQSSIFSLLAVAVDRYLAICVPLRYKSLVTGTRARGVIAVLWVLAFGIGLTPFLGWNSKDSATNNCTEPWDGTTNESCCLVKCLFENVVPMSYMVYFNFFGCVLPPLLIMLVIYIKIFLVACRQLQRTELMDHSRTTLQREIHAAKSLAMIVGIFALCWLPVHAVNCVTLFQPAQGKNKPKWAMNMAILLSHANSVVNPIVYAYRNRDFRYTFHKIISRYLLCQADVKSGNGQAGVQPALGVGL

Compound	IC50 [1]	IC50 [2]	IC50 [3]	IC50 [4]	IC50 [5]	IC50 [6]	IC50 [7]	IC50 [8]	IC50 [9]
Cn1cc(-c2c(-c3ccc(F)cc3)nc(N)n3nc(Cc4ncccc4F)nc23)ccc1=O [Example 1, 5-(5-amino-7-(4-fluorophenyl)-2-((3-fluoropyridin-2-yl)methyl)-[1,2,4]triazolo[1,5-c]pyrimidin-8-yl)-1-methylpyridin-2(1H)-one]	2.3 nM	2870 nM	10 nM	4.7 nM	8.5 nM	> 10000 nM	2.3 nM	117 nM	1.1 nM
Cn1cc(-c2c(-c3ccc(F)cc3)nc(N)n3nc(Cc4ncccc4OC(F)F)nc23)ccc1=O [Example 20, 5-(5-amino-2-[[3-(difluoromethoxy)pyridin-2-yl]methyl]-7-(4-fluorophenyl)-[1,2,4]triazolo[1,5-c]pyrimidin-8-yl)-1-methyl-1,2-dihydropyridin-2-one]	2.8 nM	1070 nM	4.9 nM	3.5 nM	34 nM	> 10000 nM	8.7 nM	84 nM	4 nM
CCn1cc(-c2c(-c3ccc(F)cc3)nc(N)n3nc(Cc4ncccc4F)nc23)ccc1=O [Example 34, 5-(5-amino-7-(4-fluorophenyl)-2-((3-fluoropyridin-2-yl)methyl)-[1,2,4]triazolo[1,5-c]pyrimidin-8-yl)-1-ethylpyridin-2(1H)-one]	2.8 nM	10000 nM	3.4 nM	2.1 nM	12 nM		0.4 nM	58 nM	0.8 nM
CN(C)c1cc(-c2c(-c3ccc(F)cc3)nc(N)n3nc(Cc4c(F)cccc4F)nc23)ccn1 [Example 10, 2-(2,6-difluorobenzyl)-8-(2-(dimethylamino)pyridin-4-yl)-7-(4-fluorophenyl)-[l,2,4]triazolo [l,5-c]pyrmidin-5-amine]	0.9 nM	4770 nM	0.4 nM	0.2 nM	42 nM	> 10000 nM	0.1 nM	4.4 nM	2.3 nM
CC(C)n1cc(-c2c(-c3ccc(F)cc3)nc(N)n3nc(Cc4ncccc4F)nc23)ccc1=O [Example 55, 5-(5-amino-7-(4-fluorophenyl)-2-((3-fluoropyridin-2-yl)methyl)-[1,2,4]triazolo[1,5-c]pyrimidin-8-yl)-1-isopropylpyridin-2(1H)-one]	4 nM	7290 nM	0.8 nM	0.7 nM	13 nM		2.8 nM	101 nM	0.1 nM
